Converted amounts (≈) assume the structure as drawn.
How the values were obtained:
B. cinerea = settings: against B. cinerea, Watanabe et al; cited from earlier work
[1] = tested on: Fusarium oxysporum strain FOP1; experiment: Inhibition of spore germination, ELISA plate assay (Examples V-XIV, XVII); assay type: cell-based; settings: for inhibition of spore germination: FIG. 8
Procedure: (§1) The concentration where fungal cell wall degrading enzyme individually provides a specified percentage fungal inhibition or where antifungal fungal cell membrane affecting compound individually provides a specific percentage fungal inhibition can be determined as follows: Assays are performed under sterile conditions. Equal volumes of spore suspensions, 3× potato dextrose broth, and the test solution or suspension in 5 mM Tris-HCl (pH 6.0) or 5 mM potassium phosphate buffer (pH 6.7) are mixed. The control is the same as the test solution except for the control the antifungal agent is omitted. The assay mixtures (total volume 45 or 30 μl) are incubated on flat-bottomed ELISA plates, each containing 96 wells, with 2,000 to 3,000 spores per well, at 25° C. After 22 to 30 hours, the plates are placed under an inverted microscope. The percentage of conidia germinating is determined as the percentage of the first 100 spores randomly found in a well. In addition, the lengths of 20 germ tubes are measured and averaged. All experiments are performed twice, with three replicates for each treatment. The inhibition values obtained in the two experiments are combined and averaged, and standard deviations are calculated from the 6 data points. The values obtained for the control are taken as 0% inhibition and all other values are divided by the values obtained for the control and multiplied by 100% to obtain percent inhibition. Determination of concentration corresponding to a particular percent inhibition is carried out by subjecting dose-response curves to regression analysis by using a binomial regression of the third order, with R^2 ranging between 0.95 and 0.99.
(§2) Assays were carried out by the procedure described in the summary of the invention section. Dose response curves were obtained by probit analysis of data collected from two separate experiments with each experiment involving three treatment replicates.
(§3) Dose response curves were determined for each antifungal fungal cell membrane affecting compound and for each fungal cell wall degrading enzyme singly. Then each fungal cell wall degrading enzyme at a concentration giving 10% inhibition when used alone was combined with increasing amounts of antifungal fungal cell membrane affecting compound. Then the concentration of antifungal fungal cell membrane affecting compound causing the ED50 for each combination was calculated by probit analysis of data collected from two experiments with three treatment replicates for each experiment. Assays for inhibition of spore germination were carried out as described in the summary of invention section above.
The relative level of synergism (RS below) for each combination was calculated by applying Limpel's formula: Ee=X+Y−(XY/100) as described in Richer, D. L, Pestic. Sci. 19, 309-315, 1987. In Limpel's formula, X and Y are the percentages of inhibition relative to each compound used alone and Ee is the expected effect for an additional (non-synergistic) effect. If the combination of the two agents produces an observed effect (Eo) greater than Ee, synergism exists, and as the difference between Eo and Ee increases, the level of synergism is greater. In this experiment, the X value (percentage inhibition by fungal cell wall degrading enzyme when used alone was chosen to be 10 (10% inhibition of spore germination when used alone) and the observed effect, Eo, was 50 (i.e., 50% inhibition of spore germination). The Y values were obtained from the determined concentrations of antifungal cell membrane affecting compound causing the ED50 for a combination and the dose response curves for the antifungal cell membrane affecting compound used alone—i.e., the Y value was the percent inhibition for the antifungal fungal cell membrane affecting compound when used alone for the concentration of antifungal fungal cell membrane affecting compound that was determined to cause the ED50 for the combination. Ee values were then calculated from Limpel's formula. […]

[2] = Solubility, guidance for forming solutions
Excerpt: Compositions for use in the systems herein are readily formulated by admixing the fungal cell wall degrading enzymes and the antifungal fungal cell membrane affecting compounds with non-toxic carriers appropriate for the particular use for a composition, e.g., agriculturally acceptable carriers for agricultural uses and pharmaceutically acceptable carriers for medicinal uses. They may be formulated as liquids (solutions or suspensions) or as solids. Since the fungal cell wall degrading enzymes need free water for activity, water must be present at the time of function. […] Water is a preferred vehicle where components are soluble in it. […] Organic solvents can also be used and may be required in some cases if a solution is desired. Guidance for forming solutions follows. […] Suspension can also be employed.

B. cinerea strain 12 = experiment: Inhibition of spore germination, ELISA plate assay (Examples III-XVI, XVIII); assay type: cell-based, Botrytis cinerea; settings: for ED50: alone or with enzyme at its ED10 concentration; for inhibition of spore germination: FIG. 7
Procedure: as §1, §2
Each of 8 antifungal fungal cell membrane affecting compounds were used in combination with each of 8 or 6 fungal cell wall degrading enzymes to provide 50% inhibition (ED50) of B. cinerea strain 12 spore germination. Each fungal cell wall degrading enzyme was used at a concentration giving 10% inhibition of spore germination when used alone in combination with an amount of antifungal fungal cell membrane affecting compound so the combination gave 50% inhibition of spore germination.
as §3
The relative level of synergism (RS below) for each combination was calculated by applying Limpel's formula: Ee=X+Y−(XY/100) as described in Richer, D. L, Pestic. Sci. 19, 309-315, 1987. In Limpel's formula, X and Y are the percentages of inhibition relative to each compound used alone and Ee is the expected effect for an additional (non-synergistic) effect. If the combination of the two agents produces an observed effect (Eo) greater than Ee, synergism exists, and as the difference between Eo and Ee increases, the level of synergism is greater. […]

CC(C)OP(=O)(OC(C)C)SCc1ccccc1 [kitazin P]
Minimum inhibitory concentration (B. cinerea): 500 mg/L (≈ 1730 µM)

trichorzianine B1 [Trich. B1]
ED50 ([1]; Table 27, concentration of trichorzianine B1 for 50% inhibition, alone or with enzyme at its ED10 concentration): 95.5 (92-99) ng ml^−1 | solubility (solvent in which the substance dissolves) [2]: readily dissolved in water | ED50 (B. cinerea strain 12; Table 19, concentration of trichorzianine B1 for 50% inhibition): 95.2 (92-99) μg ml^−1

CN1C(=O)[C@]23CC4=CC=C[C@H](O)[C@H]4N2C(=O)[C@@]1(CO)SS3 [Gliotoxin, gliotoxin]
solubility (solvent in which the substance dissolves) [2]: dissolves in methanol and ethanol

trichorzianine A1 [Trich. A1]
ED50 ([1]; Table 26, concentration of trichorzianine A1 for 50% inhibition, alone or with enzyme at its ED10 concentration): 87 (83-91) ng ml^−1 | solubility (solvent in which the substance dissolves) [2]: readily dissolved in water | ED50 (B. cinerea strain 12; Table 18, concentration of trichorzianine A1 for 50% inhibition): 90.5 (85-95) μg ml^−1

gramicidin
ED50 ([1]; Table 23, concentration of gramicidin for 50% inhibition, alone or with enzyme at its ED10 concentration): >300 ng/mL | inhibition of spore germination ([1]; gramicidin alone): 20-25% | inhibition of spore germination ([1]; gramicidin with glucosidase from T. harzianum strain P1 (10, 25 μg/ml)): about 100% | solubility (solvent in which the substance dissolves) [2]: dissolves in ethanol | ED50 (B. cinerea strain 12; Table 15, concentration of gramicidin for 50% inhibition): >300 µg/mL | inhibition of spore germination (B. cinerea strain 12; gramicidin alone): 20-25% | inhibition of spore germination (B. cinerea strain 12; gramicidin with endochitinase from G. virens strain 41 (2.5, 5 μg/ml)): about 100%

CC(C)[C@@H]1NC(=O)[C@H](C)OC(=O)[C@@H](C(C)C)NC(=O)[C@@H](C(C)C)OC(=O)[C@H](C(C)C)NC(=O)[C@H](C)OC(=O)[C@@H](C(C)C)NC(=O)[C@@H](C(C)C)OC(=O)[C@H](C(C)C)NC(=O)[C@H](C)OC(=O)[C@@H](C(C)C)NC(=O)[C@@H](C(C)C)OC1=O [Valinomycin, valinomycin]
ED ([1]; Table 24, concentration of valinomycin for 50% inhibition, alone or with enzyme at its ED10 concentration): 8.5 (8.0-9.0) ng ml^−1 | solubility (solvent in which the substance dissolves) [2]: dissolve in acetone | ED50 (B. cinerea strain 12; Table 16, concentration of valinomycin for 50% inhibition): 7.3 (7.0-7.6) μg ml^−1

NC(=O)OC[C@H](O)[C@@H](O)[C@H](N)C(=O)N[C@H](C(=O)O)[C@H]1O[C@@H](n2cc(CO)c(=O)[nH]c2=O)[C@H](O)[C@@H]1O [polyoxin B]
Minimum inhibitory concentration (B. cinerea): 12.5 mg/L (≈ 24.6 µM)

Reference: patent US6512166B1, “Combinations of fungal cell wall degrading enzyme and fungal cell membrane affecting compound” (priority 1991, dated 2003)
